From patent US10053459B2, “Life-extending agent, life extension method using the life-extending agent, novel dual oxidase activator, method for activating dual oxidase, production of life-extending agent, and production of dual oxidase activator” (National University Corporation Nagoya University, priority 2014, dated 2018)
Structures can show the parent of a compound that is named as a salt. Values belong to the compound of their own block, whether it stands above or below them.

Columns and labels:
[1] = tested on: nematode C. elegans, wild-type; assay: Life test (life assay) of nematode on medium containing the test substance; assay type: in vivo; settings: for average life / life-extending effect: 5.0 mM in medium vs 0 mM, FIGS. 3 and 4
Experimental: Pyrroloquinoline quinone disodium salt was mixed with water and sodium hydroxide to obtain test sample concentrate 1 of pH 6. The content of the pyrroloquinoline quinone disodium salt in the test sample concentrate 1 was adjusted to 30 mM. The test sample concentrate 1 was autoclave-sterilized for use. […] Meanwhile, to each E. coli solution cultured in an LB medium (Luria-Bertani broth), the test sample concentrate 1 was added so as to attain the same concentration as that of the pyrroloquinoline quinone disodium salt in the medium of each of the prepared petri dishes. 100 μL of the obtained E. coli solution was seeded in a circular pattern of approximately 2 cm in diameter to the center of each petri dish. […] The petri dish was wrapped in Parafilm during storage. […] These individuals were excluded from the data. […] Petri dishes having media containing different concentrations of the acetone adduct were prepared by the same operation as in Example 1 except that the amount of the test sample concentrate 2 added was adjusted such that the concentration of the acetone adduct in each medium solution was 0 mM (Comparative Example 2) and 5.0 mM (Example 5). […] Petri dishes having media containing different concentrations of the IPQ trisodium salt were prepared by the same operation as in Example 1 except that the amount of the test sample concentrate 3 added was adjusted such that the concentration of the IPQ trisodium salt in each medium solution was 0 mM (Comparative Example 3) and 5.0 mM (Comparative Example 4).

[2] = Stability of test substance in the petri dishes used in the life test (LC analysis); assay type: physicochemical; settings: for Main impurities / Test substance (%): in petri dish medium used in the life test
Experimental: The analysis of PQQ sodium salt was conducted under analysis conditions given below. PQQ concentration and purity were measured by high-performance liquid chromatography under conditions shown below.
Apparatus: high-performance liquid chromatography, LC-2010 manufactured by Shimadzu Corp.
Column: YMC-Pack ODS-A, 150×4.6 mm I.D.
Measurement temperature: 40° C.
Detection: absorbance at 259 nm
Eluent: 30 mM acetic acid/70 mM ammonium acetate (pH 5.1)
The reduced pyrroloquinoline quinone, the acetone adduct of pyrroloquinoline quinone, and the IPQ trisodium salt in the petri dishes used in the life test were evaluated for their stability by liquid chromatography analysis (LC analysis). The liquid chromatography analysis can be conducted according to those described above.

[3] = tested on: nematode variant daf-2 (e1370)
Experimental: (§1) 7.2 g of NaCl, 48 g of agar, 6 g of Bactopeptone (manufactured by Becton, Dickinson and Company), and water (2.4 L including the amount of the sample concentrate to be added) were added into each flask. The flask was autoclaved at 120° C. for 20 minutes or longer and then cooled until the surface temperature of the flask became approximately 45° C. To this flask, 60 mL of a 1 M potassium phosphate solution, 2.4 mL of a 1 M CaCl2 solution, 2.4 mL of a 1 M MgSO4 solution, 2.4 mL of a 750 mg/150 mL cholesterol solution, and a predetermined amount of the 30 mM test sample concentrate 1 were added to obtain a medium solution. The amount of the test sample concentrate 1 added was adjusted such that the concentration of the pyrroloquinoline quinone disodium salt in the medium solution was 0 mM (Comparative Example 1), 0.1 mM (Example 1), 1.0 mM (Example 2), 3.0 mM (Example 3), and 5.0 mM (Example 4). The flask was further cooled until the surface temperature of the flask reached 40 to 41° C. 14 mL of the medium solution was added to each polystyrene petri dish having a diameter of 6 cm and cooled to room temperature to prepare petri dishes having media containing different concentrations of the pyrroloquinoline quinone disodium salt.
(§2) In order to synchronize the ages of nematode individuals at the start of the experiment, parent nematodes were allowed to lay eggs and then removed, and individuals evenly grown for a given period of time after hatching were used. Specifically, five adults (individuals under incubation) were selected and transferred to each petri dish, which was then left at 20° C. for 2 hours (lay period), and the parent nematodes were removed. Then, the petri dish was left at 20° C. for 72 hours. The life test was started when the number of individuals per petri dish reached 10 to 20.
(§3) Grown-up individuals were used in the life assay.
(§4) The individuals in each petri dish were transferred to a fresh petri dish every day. Information on date, the number of survivors, the number of deaths, the number of missing individuals, etc., was recorded in a score sheet. The petri dish was wrapped in Parafilm during storage. An individual was judged as being dead when no spontaneous behavior was seen and no response was found even by vibration stimulus or contact stimulus. Nematodes are often missing because of running out of the petri dish, being dried at the wall, crawling out from a gap in the medium, for example. Therefore, the number of missing individuals was recorded and excluded from the data. Individuals that died of the eclosion of their children in their bodies, which occurs frequently in certain variants, were recorded as BAG, and individuals that died of hernia were recorded as rupture.
(§5) Nematode variants can be used to determine how PQQ works. A plurality of petri dishes were prepared using the medium containing 5 mM PQQ prepared in Example 4. The life extension test was conducted in the same way as in Example 1 using the prepared petri dishes and each variant shown in Table 2. The results obtained without the addition of PQQ are indicated as 100 for a relative effect.

[4] = tested on: nematode variant age-1 (hx546)
Experimental: as §1, §2, §3, §4, §5

[5] = tested on: nematode variant bli-3 (e767), reduced activity of dual oxidase
Experimental: as §1, §2, §3, §4, §5

[6] = tested on: nematode variant bli-3 (im-10), reduced activity of dual oxidase
Experimental: as §1, §2, §3, §4, §5

[7] = tested on: nematode variant pmk-3 (ok-169)
Experimental: as §1, §2, §3, §4, §5

[8] = tested on: nematode variant nsy-1 (ky400)
Experimental: as §1, §2, §3, §4, §5

[9] = tested on: nematode variant skn-1 (zu67)
Experimental: as §1, §2, §3, §4, §5

[10] = tested on: nematode line OB265bli-3 (e767); imEx144[bli-3genomic clone]; assay: Life test using line OB265 bli-3 (e767); imEx144[bli-3genomic clone]; assay type: in vivo, C. elegans
Excerpt: as §3
(§6) The petri dish was wrapped in Parafilm during storage. […] These individuals were excluded from the data.

[11] = tested on: nematode variant gas-1 (fc2); assay: Life test using variant gas-1 (fc2); assay type: in vivo, C. elegans
Excerpt: as §3, §6

[12] = Stability of reduced PQQ in agar medium, preservation test (LC and UV spectrum analysis); assay type: physicochemical; settings: 30° C. for 3 days
Experimental: Ultraviolet-visible spectra were measured using a UV spectrometer UV1800 manufactured by Shimadzu Corp.
Reduced PQQ was added to sterile water to prepare a 30 mM dispersion. This dispersion was added so as to make 5 mM in the composition for evaluation described above to prepare a petri dish. The preservation test was conducted at 30° C. for 3 days, followed by LC analysis and UV spectrum analysis. The reduced formed is converted to PQQ under neutral conditions. Therefore, the reduced state can be confirmed by detecting PQQ by the LC analysis and measuring the UV spectrum of a solution thereof in dimethyl sulfoxide. As a result of confirming the state of the reduced PQQ in an agar medium in this way, 86% of all PQQs maintained the reduced state.

[13] = 5 mM PQQ, result without PQQ = 100

Main impurities [2]: PQQ | Test substance (%) [2]: 92% | detection of IPQ (formed by reaction with amino acids of the medium) ([2]; petri dish medium with peptone): not detected
Structure (SMILES): CC(=O)CC1(O)C(=O)c2cc(C(=O)O)[nH]c2-c2c(C(=O)O)cc(C(=O)O)nc21 (stereo not drawn) [acetone adduct of pyrroloquinoline quinone]
average life / life-extending effect [1]: tends to extend the average life

Test substance (%) [2]: IPQ100%
Structure (SMILES): O=C(O)c1cc2c(=O)c3ncn4c(C(=O)O)cc(C(=O)O)c(c2[nH]1)c34 [IPQ, trisodium salt of imidazoloquinone, reference compound]
average life / life-extending effect [1]: small life-extending effect

Structure (SMILES): O=C(O)c1cc(C(=O)O)c2c(n1)C(=O)C(=O)c1cc(C(=O)O)[nH]c1-2 [PQQ, Pyrroloquinoline quinone disodium salt]
average life (survival rate vs rearing days after becoming adults) ([1]; 0.1, 1.0, 3.0, 5.0 mM in medium vs 0 mM, FIGS. 1 and 2): tends to extend the average life | Average life after becoming adult ([1]; wild-type, 5 mM PQQ in medium): 15.0 ± 0.6 days | Relative value ([1]; wild-type, 5 mM PQQ, result without PQQ = 100): 140 | Average life after becoming adult ([3]; 5 mM PQQ in medium): 34.6 ± 0.9 days | Relative value [3, 13]: 121 | Average life after becoming adult ([4]; 5 mM PQQ in medium): 23.4 ± 0.9 days | Relative value [4, 13]: 123 | Average life after becoming adult ([5]; 5 mM PQQ in medium): 13.5 ± 0.4 days | Relative value [5, 13]: 87 | Average life after becoming adult ([6]; 5 mM PQQ in medium): 11.7 ± 0.4 days | Relative value [6, 13]: 99 | Average life after becoming adult ([7]; pmk-3 (ok-169), 5 mM PQQ in medium): 17.9 ± 0.4 days | Relative value ([7]; pmk-3 (ok-169), 5 mM PQQ, result without PQQ = 100): 90 | life-extending effect (in words) ([7]; pmk-3 variant, 5 mM PQQ): strongly suppressed | Average life after becoming adult ([8]; nsy-1 (ky400), 5 mM PQQ in medium): 16.0 ± 0.3 days | Relative value ([8]; nsy-1 (ky400), 5 mM PQQ, result without PQQ = 100): 104 | life-extending effect (in words) ([8]; nsy-1 variant, 5 mM PQQ): strongly suppressed | Average life after becoming adult ([9]; skn-1 (zu67), 5 mM PQQ in medium): 12.8 ± 0.2 days | Relative value ([9]; skn-1 (zu67), 5 mM PQQ, result without PQQ = 100): 96 | life-extending effect (in words) ([9]; skn-1 gene variant, 5 mM PQQ): strongly suppressed | Average life after becoming adult ([10]; OB265bli-3 (e767), imEx144[bli-3genomic clone], 5 mM PQQ in medium): 19.8 ± 0.3 days | Relative value ([10]; OB265bli-3 (e767), imEx144[bli-3genomic clone], 5 mM PQQ, result without PQQ = 100): 122 | life-extending effect (in words) ([10]; bli-3 gene-deficient line transfected with the bli-3 gene, Example 15, 5 mM PQQ): extended | Average life after becoming adult ([11]; 5 mM PQQ in medium): 14.7 ± 0.9 days | Relative value [11, 13]: 111

Main impurities ([12]; 5 mM in agar medium petri dish): PQQ | Test substance (%) ([12]; 5 mM in agar medium petri dish, LC and UV analysis): Reduced pyrroloquinoline quinone 85% | share of all PQQs that maintained the reduced state ([12]; 5 mM in agar medium, LC and UV spectrum analysis): 86% | Main impurities [2]: IPQ | Test substance (%) [2]: Reduced pyrroloquinoline quinone 65%
Structure (SMILES): O=C(O)c1cc(C(=O)O)c2c(n1)c(O)c(O)c1cc(C(=O)O)[nH]c12 [Reduced pyrroloquinoline quinone, reduced pyrroloquinoline quinone]
